Patent US20240226234A1, “WNT5A PEPTIDES FOR THE TREATMENT OF ACUTE M[…]” (W[…], priority 2021, published 2024)
No end group written: not given here. *: point of attachment. For = O=C*

Tests used:
Assay type in all cases: cell-based, human
[1] = tested on: U937 cells; test: Actin polymerization assay, U937 cells; conditions: U937, Foxy-5 100 μM 72 h
Method: F-actin polymerization was analyzed in treated leukemic cell lines using AlexaFluor 633-labeled phalloidin (A22284, Invitrogen) before and after CXCL12 stimulation. The cells were stimulated with CXCL12 (300 ng/ml; Peprotech) in serum-free media at 37 °C for 30 and 120 seconds. The reaction was stopped by adding 3 volumes of paraformaldehyde (3.7%) at room temperature for 10 min, then washed and permeabilized on ice. Cells were stained with 633-phalloidin (2 mg/mL). Flow cytometric data were analyzed using a FACS flow cytometer (BD) followed by FlowJo software analysis. The F-actin content obtained were normalized calculating the ratio between each stimulated cells-mean fluorescence intensity (MFI) values and the nonstimulated cells MFI from the basal levels of the control cells and expressed as fold change.
Therefore, we performed a flow cytometry analysis to evaluate whether Foxy-5 treatment would be able to disrupt actin polymerization. Leukemia cell lines were treated with Foxy-5 (100 μM) or vehicle during 72 hours, stimulated with CXCL12 (300 ng/ml) for 30 or 120 seconds, and stained with […] for detection of actin polymerization by flow cytometry. […] Thus, a significant reduction of actin polymerization was shown after Foxy-5 treatment when compared to untreated cells after 30 seconds of CXCL12 induction (P<. 001).

[2] = tested on: PI3K and MAPK pathways; test: Western blot of PI3K and MAPK pathway proteins, K562 cells; conditions: K562, Foxy-5 50 μM or 100 μM, 72 h
Method: Equal amounts of protein were resolved by sodium dodecyl sulphate-polyacrylamide gel electrophoresis and transferred onto nitrocellulose membranes (Millipore). Detection was carried out with the chemiluminescent substrate using an ECL Plus (GE-Healthcare). Monoclonal antibodies against P70S6K (sc-8418) and polyclonal antibodies against Actin (sc-1616), AKT1/2/3 (sc-8312), BAX (sc-493), BCL-XL (sc-8392), GAPDH (sc-32,233), p-AKT1/2/3 (sc-33,437) and p-P70S6K (sc-7984) were purchased from Santa Cruz Biotechnology. ERK1/2 ([pT185/Y187]; 44-680G) and ERK1/2 (44-654G) from Invitrogen. Quantitative blots were carried out using the UN-SCAN-IT densitometer software.
Based on the above results, the activity of proteins of PI3K and MAPK pathways were then investigated in a western blot. Briefly, U937 and K562 cells were seeded and treated with Foxy-5 (50 μM or 100 μM) or vehicle for 72 hours. Then, equal amounts of protein were used for total extracts followed by electrophoresis on 12% SDS polyacrylamide gels under reducing conditions, transferred to nitrocellulose membranes, blocked with 10% skimmed milk in TBS-0.1% Tween for 1 hour, stained with appropriate primary and secondary antibodies. The membranes were visualized with chemiluminescence using an ECL Plus (GE-Healthcare). Quantitative analyses of the optical intensities of the protein bands were determined with Un-Scan-It Gel 6.1 (Silk Scientific Inc.).

[3] = tested on: U937 cells; test: ROS production by flow cytometry, U937 cells; conditions: 72 h; for ROS production (MFI): U937, 2D culture on HS5 stromal cells; for ROS production (mean fluorescence intensity): U937, monoculture
Method: (§1) A panel of human myeloid leukemia cell lines (HL60, K562, KG1a, THP1 and U937) and HS-5 mesenchymal stromal cells lineage were cultured in Roswell Park Memorial Institute medium-1640 (RPMI; Sigma) containing 10% Fetal Bovine Serum (Gibco), glutamine (2 mM; Sigma), penicillin (100 μg/mL; Sigma), streptomycin (100 μg/mL; Sigma), and amphotericin B (0.25 μg/mL; Gibco). The cells were maintained in a humidified atmosphere at 37° C. and 5% CO2 and the experiments were performed when they reached exponential growth. For the assays, cells were seeded on a 24-well plate and treated or not with Foxy-5 for 72 hours.
Cells treated with Foxy or with vehicle were collected and intracellular ROS generation was measured by flow cytometry following staining with DCFDA ([…]; Sigma). Acquisition of cells was performed on a FACScalibur flow cytometer (BD) and analysis was carried out using the FlowJo software.
Leukemia cell lines were treated for 72 h with Foxy-5, at doses of 50 and 100 μM, or vehicle, stained with DCFHA dye, and analyzed by flow cytometry.

[4] = tested on: K562 cells; test: Transwell chemotaxis assay toward CXCL12, K562 cells; conditions: K562, Foxy-5 100 μM 72 h pretreatment, CXCL12 100 ng/mL, 24 h
Method: Leukemic cell lines, pretreated or not with Foxy-5 (72 hours of stimulation) were tested for chemotaxis in Transwell-based assays for Chemotaxis (6.5 mm diameter, 8 μm pore size; Corning). Polycarbonate membranes were incubated with poly-L-lysine (1 mg/mL) for 1 hour at 37° C. followed by saline buffer washing. Briefly, cells were collected, washed with media containing bovine serum albumin (0.1% BSA; Sigma), and then seeded at a density of 5×10^5 cells into the upper chamber of the transwell. The lower chamber was filled with media containing 0.5% BSA (negative control), media containing 10% FBS (positive control) and media 5 containing 0.5% BSA with CXCL12 (100 ng/ml; Peprotech) (Melo et al., 2014). Following 6 h or 24 h of incubation at 37° C., cells that migrated into the lower chamber were collected, centrifuged, resuspended in saline buffer and counted. The number of migrated cells was expressed as a percentage of the input, i.e., the cells number applied directly to the lower compartment in parallel wells. The migration of cells was normalized to 100%+/−standard deviation (SD) of triplicates (Favaro et al., 2013).
We investigated whether restoring of WNT5A could enable the modulation CXCL12-induced chemotaxis of leukemia cells. […]

[5] = tested on: HL60 cells; test: Cell cycle assay, HL60 cells; conditions: 72 h
Method: as §1
Cells treated with Foxy or with vehicle were collected and fixed, at least, 24 hours in 70% ethanol. DNA was stained with a buffer containing iodide propidium (20 μg/mL; Sigma) and RNase A (10 μg/mL; Sigma). Cell fluorescence was detected with a FACSCalibur flow cytometer (BD). The proportions of cells in the cell cycle phases were analyzed by Modifit (Verify Software House Inc), according to DNA distributions.
As we observed a reduction in the leukemic proliferation after Foxy-5 treatment, we also analyzed the cell cycle phases. Leukemia cell lines were treated for 72 hours with Foxy-5, at doses of 50 μM and 100 μM, or vehicle, stained with the Piper buffer containing RNAse and iodeto propidium and then analyzed by flow cytometry.

Foxy-5: Formylated hexapeptide fragment of WNT5A: MDGCEL (SEQ. ID. NO. 3) with methionine in position 1 as N-formyl methionine; WNT5A-mimicking compound (For-MDGCEL; listed as Homo sapiens)
F-actin content following CXCL12 stimulation ([1]; CXCL12 300 ng/ml for 30 seconds): 3.03 fold increase
F-actin content following CXCL12 stimulation ([1]; CXCL12 300 ng/ml for 120 seconds): 1.26 fold
phosphorylation level of AKT compared to vehicle-treated cells [2]: lower phosphorylation levels
phosphorylation level of ERK compared to vehicle-treated cells [2]: lower phosphorylation levels
protein level of cyclin D1 compared to vehicle-treated cells [2]: reduced protein level
ROS production (MFI) ([3]; Foxy-5 50 μM): 20.90 (range 19.90-22.63) MFI
ROS production (MFI) ([3]; Foxy-5 100 μM): 23.50 (range 21.70-23.80) MFI
ROS production (mean fluorescence intensity) ([3]; Foxy-5 50 μM): 7.32 (range 4.80-8.67) MFI
ROS production (mean fluorescence intensity) ([3]; Foxy-5 100 μM): 7.09 (range 4.70-8.40) MFI
CXCL12-induced chemotaxis (migrated cells as percentage of the input, average) [4]: 1.52%
cells in G0/G1 cell cycle phase (average) ([5]; HL60, co-cultured with HS5 stromal cells, Foxy-5 50 μM): 53.47%
cells in G0/G1 cell cycle phase (average) ([5]; HL60, co-cultured with HS5 stromal cells, Foxy-5 100 μM): 70.68%
cells in G0/G1 cell cycle phase (average) ([5]; HL60, monoculture, Foxy-5 50 μM): 51.57%
cells in G0/G1 cell cycle phase (average) ([5]; HL60, monoculture, Foxy-5 100 μM): 53.02%
